The target in one assay is T1, TNKS2 (Homo sapiens, UniProt Q9H2K2).
T1 sequence (Q9H2K2 1-1166): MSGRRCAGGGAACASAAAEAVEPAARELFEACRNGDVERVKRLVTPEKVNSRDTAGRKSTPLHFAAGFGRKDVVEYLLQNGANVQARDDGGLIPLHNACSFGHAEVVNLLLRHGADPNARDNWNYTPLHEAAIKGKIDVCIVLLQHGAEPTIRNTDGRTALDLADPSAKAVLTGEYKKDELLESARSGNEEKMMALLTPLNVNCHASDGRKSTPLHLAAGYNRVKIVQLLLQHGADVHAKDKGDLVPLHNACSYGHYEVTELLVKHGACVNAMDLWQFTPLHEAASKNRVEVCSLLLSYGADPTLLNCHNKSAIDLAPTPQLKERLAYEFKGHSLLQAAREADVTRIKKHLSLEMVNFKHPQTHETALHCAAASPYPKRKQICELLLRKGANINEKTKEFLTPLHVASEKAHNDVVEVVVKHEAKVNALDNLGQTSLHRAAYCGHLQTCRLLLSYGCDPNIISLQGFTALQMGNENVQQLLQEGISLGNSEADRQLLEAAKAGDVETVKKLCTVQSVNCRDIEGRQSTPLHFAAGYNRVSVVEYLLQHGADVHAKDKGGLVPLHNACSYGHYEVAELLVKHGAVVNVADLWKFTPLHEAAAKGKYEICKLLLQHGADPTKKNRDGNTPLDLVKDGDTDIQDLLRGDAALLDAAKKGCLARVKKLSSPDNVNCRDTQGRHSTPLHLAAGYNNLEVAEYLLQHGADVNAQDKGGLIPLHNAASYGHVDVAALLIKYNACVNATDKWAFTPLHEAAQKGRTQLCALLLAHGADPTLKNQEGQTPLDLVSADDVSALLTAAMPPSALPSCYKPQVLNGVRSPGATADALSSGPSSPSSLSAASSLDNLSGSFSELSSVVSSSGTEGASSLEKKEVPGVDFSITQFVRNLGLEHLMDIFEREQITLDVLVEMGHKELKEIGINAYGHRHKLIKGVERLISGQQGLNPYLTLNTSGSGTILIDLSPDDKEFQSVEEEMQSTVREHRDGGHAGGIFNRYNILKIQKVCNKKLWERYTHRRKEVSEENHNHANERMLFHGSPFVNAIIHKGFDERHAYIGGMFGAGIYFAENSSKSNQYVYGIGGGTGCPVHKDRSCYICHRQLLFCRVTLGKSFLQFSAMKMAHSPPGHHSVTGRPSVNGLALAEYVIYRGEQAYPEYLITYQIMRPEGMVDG
Kind of assay: Modified TNKS2 Assay 3 (BPS kit #80578, biotin-NAD+, 96 well). Particulars: human TNKS2, BPS kit #80578, 96 well. It is filed as biochemical. The protocol:
The potency of the compounds against human TNKS2 according to the invention was assessed using a commercially available biotin/streptavidin binding assay kits from BPS Bioscience, San Diego, USA (Catalog #80578 for TNKS2). The incorporation of a biotin-labeled NAD+ during the […] catalyzed ribosylation of a suitable protein substrate was detected using with a streptavidin-HRP coupled chemi-luminescent readout. The intensity of the readout signal is proportional to the incorporated NAD^+. Inhibition of TNKS2 leads to a decreased incorporation of NAD^+ and consequently to a lower readout signal intensity in the corresponding TNKS2 assays. The concentration of a test compound that inhibits the enzyme activity by 50% (corresponds to half of the normed readout signal intensity) is reported as IC50. The assay conducted in a 96 well MTP format according to the manufacturer's protocol and using a BMG Pherastar MTP reader [BMG-Labtech, Offenburg, Germany].

Assay [1] deals with wildtype Wnt signaling cascade. In words: HEK293 TOP Assay (Super TopFlash luciferase reporter, Wnt-3a stimulated). It is filed as cell-based. Particulars: Homo sapiens, HEK293, 16 h, HEK293 TOP reporter cell line, Wnt-3a at EC50, 16 hours incubation, compound dilution series 50 μM to 15 nM. In outline:
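Compounds (50 μM down to 15 nM, 3.16-fold steps, in CAFTY buffer pH 7.4, 2 mM Ca2+, 0.01% BSA) tested in parallel on TOP and FOP HEK293 reporter lines to define selective wildtype Wnt inhibition. Pathway driven by recombinant human Wnt-3a applied at 2500–5 ng/ml in two-fold dilutions.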
On the technique in general: A reporter such as luciferase makes a cellular process visible.

The test system of assay [2] is HEK293 FOP control reporter cell line. In words: HEK293 FOP Assay (FOP control vector luciferase reporter). Format: cell-based. Conditions: Homo sapiens; HEK293 FOP control reporter cell line, 16 hours incubation, compound dilution series 50 μM to 15 nM. In outline: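 Compound series 50 μM to 15 nM, 3.16-fold steps, were diluted in CAFTY buffer (pH 7.4, 2 mM Ca2+, 0.01% BSA) and tested alongside the TOP reporter line. Human Wnt-3a was added at 2500–5 ng/ml in two-fold steps. The control HEK293 line stably holds an FOP vector whose TCF elements are randomized and non-functional.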

Structures are written as SMILES. pIC50: −log10 of the molar value.

`CC(CN1CCOCC1)NC(=O)c1[nH]cnc1C(=O)Nc1ccc(NC(=O)c2ccccc2Cl)cc1` (centres unmarked) [Example 162, N^4-{4-[(2-chlorobenzoyl)amino]phenyl}-N^5-[1-(morpholin-4-yl)propan-2-yl]-1H-imidazole-4,5-dicarboxamide]: the results for the pIC50 (at TNKS2; in assay [1]) were 7.70 and 6.57, respectively.

In the case of `O=C(Nc1ccc(NC(=O)c2nc[nH]c2C(=O)NCCN2CCC(O)CC2)cc1)c1ccccc1Cl` [Example 197, N^4-{4-[(2-chlorobenzoyl)amino]phenyl}-N^5-[2-(4-hydroxypiperidin-1-yl)ethyl]-1H-imidazole-4,5-dicarboxamide], the pIC50 against TNKS2 is 9.00; in assay [1], 6.85.

As to `CC1CCN(CCNC(=O)c2[nH]cnc2C(=O)Nc2ccc(NC(=O)c3ccccc3Cl)cc2)CC1` [Example 163, N^4-{4-[(2-chlorobenzoyl)amino]phenyl}-N^5-[2-(4-methylpiperidin-1-yl)ethyl]-1H-imidazole-4,5-dicarboxamide], the pIC50 in assay [2] is 4.43; against TNKS2, 8.00; in assay [1] it was 7.00.

As to `CC1CCCCN1CCNC(=O)c1[nH]cnc1C(=O)Nc1ccc(NC(=O)c2ccc(F)cc2Cl)cc1` (centres unmarked) [Example 191, N^4-{4-[(2-chloro-4-fluorobenzoyl)amino]phenyl}-N^5-[2-(2-methylpiperidin-1-yl)ethyl]-1H-imidazole-4,5-dicarboxamide], the pIC50 in assay [2] is 4.51; against TNKS2, 8.70; in assay [1] it was 7.40.

Take `O=C(Nc1ccc(NC(=O)c2nc[nH]c2C(=O)NCCN2CCCC2)cc1)c1ccccc1Cl` [Example 168, N^4-{4-[(2-chlorobenzoyl)amino]phenyl}-N^5-[2-(pyrrolidin-1-yl)ethyl]-1H-imidazole-4,5-dicarboxamide]: the pIC50 in assay [2] was 4.57; against TNKS2, greater than 9.30; in assay [1], 7.10.

On to `CC(CNC(=O)c1[nH]cnc1C(=O)Nc1ccc(NC(=O)c2ccc(F)cc2Cl)cc1)N1CCCCC1` (centres unmarked) [Example 170, N^4-{4-[(2-chloro-4-fluorobenzoyl)amino]phenyl}-N^5-[2-(piperidin-1-yl)propyl]-1H-imidazole-4,5-dicarboxamide], for which the pIC50 at TNKS2 is 8.70; in assay [1], 6.74.

With `O=C(Nc1ccc(NC(=O)c2nc[nH]c2C(=O)NCCCN2CCOCC2)cc1)c1ccc(F)cc1Cl` [Example 204, N^4-{4-[(2-chloro-4-fluorobenzoyl)amino]phenyl}-N^5-[3-(morpholin-4-yl)propyl]-1H-imidazole-4,5-dicarboxamide], the values for the negative-log IC50 (pIC50) (in assay [2]; against TNKS2; in assay [1]) were 4.46, 7.70 and 6.51, respectively.

Take `CC(C)(CNC(=O)c1[nH]cnc1C(=O)Nc1ccc(NC(=O)c2ccc(F)cc2Cl)cc1)N1CCCCC1` [Example 159, N^4-{4-[(2-chloro-4-fluorobenzoyl)amino]phenyl}-N^5-[2-methyl-2-(piperidin-1-yl)propyl]-1H-imidazole-4,5-dicarboxamide]: the results for the pIC50 (at TNKS2; in assay [1]) were 8.70 and 7.05, respectively.

Turning to `CNC(=O)c1nc[nH]c1C(=O)Nc1ccc(NC(=O)c2ccc(F)cc2Cl)c(F)c1` [Example 72, N^5-{4-[(2-chloro-4-fluorobenzoyl)amino]-3-fluorophenyl}-N^4-methyl-1H-imidazole-4,5-dicarboxamide], the values for the pIC50 (at TNKS2; in assay [1]) were 7.22 and 6.31, respectively.

For the compound `O=C(Nc1ccc(NC(=O)c2nc[nH]c2C(=O)NCCN2CCC2)cc1)c1ccc(F)cc1Cl` [Example 198, N^5-[2-(azetidin-1-yl)ethyl]-N^4-{4-[(2-chloro-4-fluorobenzoyl)amino]phenyl}-1H-imidazole-4,5-dicarboxamide], the pIC50 was greater than 9.30 on TNKS2 and 6.96 in assay [1].

As for `CC(CNC(=O)c1[nH]cnc1C(=O)Nc1ccc(NC(=O)c2ccc(F)cc2Cl)cc1)N1CCN(C)CC1` (centres unmarked) [Example 185, N^4-{4-[(2-chloro-4-fluorobenzoyl)amino]phenyl}-N^5-[2-(4-methylpiperazin-1-yl)propyl]-1H-imidazole-4,5-dicarboxamide], the pIC50 on TNKS2 was 7.70; in assay [1] it was 6.70.

For orientation: pIC50 means the negative decadic logarithm of the IC50, by convention in mol/L.

Values taken from patent publication US9884063B2, “Amido-substituted azole compounds” (Bayer Pharma Aktiengesellschaft, priority 2014, dated 2018).
